In patent US8362000B2, “Azetidinyl diamides as monoacylglycerol lipase inhibitors” (Janssen Pharmaceutica NV, priority 2009, dated 2013):
Positions count from the first letter of the chain named. Like-named read-outs stand apart in the source and are kept apart here.

How the values were obtained:
[1] = target: T1, purified wild type MGL (wt-MGLL 6H-11-313) (Homo sapiens, UniProt Q99685)
T1 sequence (Q99685 1-303): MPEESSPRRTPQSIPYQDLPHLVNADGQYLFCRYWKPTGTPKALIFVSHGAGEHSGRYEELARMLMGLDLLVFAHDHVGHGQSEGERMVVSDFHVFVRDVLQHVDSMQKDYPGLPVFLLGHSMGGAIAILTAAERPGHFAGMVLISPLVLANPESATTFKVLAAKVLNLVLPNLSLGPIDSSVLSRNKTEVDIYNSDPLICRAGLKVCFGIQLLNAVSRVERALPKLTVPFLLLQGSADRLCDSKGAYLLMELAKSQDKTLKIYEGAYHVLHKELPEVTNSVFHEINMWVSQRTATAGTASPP

mutant MGL = target: T2, mutant MGL (Homo sapiens, UniProt Q99685, L169S/L176S); experiment: MGL ThermoFluor assay - mutant; format: binding; details: read-out: MGL mutant ThermoFluor Kd
T2 sequence (Q99685 1-303 L169S/L176S): T1 sequence (Q99685 1-303) with L169S, L176S

MGL = target: T3, MGL (Rattus norvegicus, UniProt Q8R431); experiment: 2-AG accumulation assay in rat brain homogenate; format: biochemical; details: rat brain homogenate, 2-AG accumulation as percent of vehicle; for 2-AG accumulation, % of vehicle control at 10 µM: compound 10 μM, read-out: Rat Brain 2AG % VehCntrl (%) @ 10 μM; for 2-AG accumulation, % of vehicle control at 1 µM: compound 1 μM, read-out: Rat Brain 2AG % VehCntrl (%) @ 1 μM; for 2-AG accumulation, % of vehicle control at 0.1 µM: compound 0.1 μM, read-out: Rat Brain 2AG % VehCntrl (%) @ 0.1 μM
T3 construct: one g rat brain was homogenized using a Polytron homogenizer; from tissue; host or cells: rat brain homogenate
T3 sequence (Q8R431 1-303): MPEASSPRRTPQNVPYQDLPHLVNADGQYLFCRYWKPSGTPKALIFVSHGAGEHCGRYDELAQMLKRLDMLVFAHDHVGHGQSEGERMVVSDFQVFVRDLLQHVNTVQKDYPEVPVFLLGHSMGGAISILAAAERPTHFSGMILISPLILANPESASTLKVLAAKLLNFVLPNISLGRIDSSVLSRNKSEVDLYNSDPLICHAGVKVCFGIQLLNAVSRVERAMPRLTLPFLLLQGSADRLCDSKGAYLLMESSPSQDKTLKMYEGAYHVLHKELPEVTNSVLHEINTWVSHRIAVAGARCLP

[2] = ThermoFluor concentration-response
[3] = ThermoFluor thermal stability binding assay

Row | SMILES | IC50 [1] [nM] | Kd (mutant MGL; [2]) [nM] | 2-AG accumulation, % of vehicle control at 10 µM (MGL) [%] | 2-AG accumulation, % of vehicle control at 1 µM (MGL) [%] | Kd (mutant MGL; [3]) [nM] | 2-AG accumulation, % of vehicle control at 0.1 µM (MGL) [%]
1 | O=C(c1ccc(-c2ccccc2)cc1)N1CC(N2CCN(C(=O)c3cccs3)CC2)C1 [Cpd 13, 1-[1-(Biphenyl-4-ylcarbonyl)azetidin-3-yl]-4-(thiophen-2-ylcarbonyl)piperazine] | 19.2 | 3 | 730 |  |  | 
2 | CC1CN(C2CN(C(=O)c3ccc(Cc4ccccc4)cc3)C2)CCN1C(=O)c1nccs1 (centres unmarked) [Cpd 115] | 11.7 | 37 | 579 |  |  | 
3 | O=C(c1csc(-c2cc(Cl)cc(Cl)c2)n1)N1CC(N2CCN(C(=O)c3nccs3)CC2)C1 [Cpd 158, 1-(1-{[2-(3,5-Dichlorophenyl)-1,3-thiazol-4-yl]carbonyl}azetidin-3-yl)-4-(1,3-thiazol-2-ylcarbonyl)piperazine] | 657 | 476 | 213 | 126 |  | 
4 | N#Cc1cccc(-c2ccc(C(=O)N3CC(N4CCN(C(=O)c5nccs5)CC4)C3)cc2)c1 [Cpd 161, 4′-({3-[4-(1,3-Thiazol-2-ylcarbonyl)piperazin-1-yl]azetidin-1-yl}carbonyl)biphenyl-3-carbonitrile] | 11.7 | 11.2 |  | 335 |  | 
5 | O=C(c1ccc(-c2ccccc2)c(F)c1)N1CC(N2CCN(C(=O)c3nccs3)CC2)C1 [Cpd 166, 1-{1-[(2-Fluorobiphenyl-4-yl)carbonyl]azetidin-3-yl}-4-(1,3-thiazol-2-ylcarbonyl)piperazine] | < 5 | 5 |  | 509 |  | 
6 | N#Cc1ccc(-c2ccc(C(=O)N3CC(N4CCN(C(=O)c5nccs5)CC4)C3)cc2)cc1 [Cpd 167, 4′-({3-[4-(1,3-Thiazol-2-ylcarbonyl)piperazin-1-yl]azetidin-1-yl}carbonyl)biphenyl-4-carbonitrile] | 15.2 | 55.8 |  | 481 |  | 
7 | O=C(c1ccc(-c2ccc(Br)cc2)cc1)N1CC(N2CCN(C(=O)c3nccs3)CC2)C1 [Cpd 168, 1-{1-[(4′-Bromobiphenyl-4-yl)carbonyl]azetidin-3-yl}-4-(1,3-thiazol-2-ylcarbonyl)piperazine] | < 5 | 10 |  | 813 |  | 
8 | O=C(c1ccc(-c2ccc(Br)cc2)cc1)N1CC(N2CCN(C(=O)c3cscn3)CC2)C1 [Cpd 172, 1-{1-[(4′-Bromobiphenyl-4-yl)carbonyl]azetidin-3-yl}-4-(1,3-thiazol-4-ylcarbonyl)piperazine] | 7.3 | 100 |  | 217 |  | 
9 | O=C(c1ccc(-c2ccc(F)cc2)cc1)N1CC(N2CCN(C(=O)c3cscn3)CC2)C1 [Cpd 225, 1-{1-[(4′-Fluorobiphenyl-4-yl)carbonyl]azetidin-3-yl}-4-(1,3-thiazol-4-ylcarbonyl)piperazine] | 54.7 |  | 656 |  | 20 | 
10 | O=C(c1cscn1)N1CCN(C2CN(C(=O)c3ccc(-c4cccc(C(F)(F)F)c4)cc3F)C2)CC1 [Cpd 245, 1-(1-{[3-Fluoro-3′-(trifluoromethyl)biphenyl-4-yl]carbonyl}azetidin-3-yl)-4-(1,3-thiazol-4-ylcarbonyl)piperazine] | 16.4 |  | 829 | 518 | 9.5 | 224
11 | COc1cc(C(=O)N2CC(N3CCN(C(=O)c4cscn4)CC3)C2)ccc1-c1cccc(C(F)(F)F)c1 [Cpd 248, 1-(1-{[2-Methoxy-3′-(trifluoromethyl)biphenyl-4-yl]carbonyl}azetidin-3-yl)-4-(1,3-thiazol-4-ylcarbonyl)piperazine] | 7 |  |  | 312 | 6.7 | 
12 | Cc1cc(-c2ccc(Cl)c(C(F)(F)F)c2)ccc1C(=O)N1CC(N2CCN(C(=O)c3cscn3)CC2)C1 [Cpd 254, 1-(1-{[4′-Chloro-3-methyl-3′-(trifluoromethyl)biphenyl-4-yl]carbonyl}azetidin-3-yl)-4-(1,3-thiazol-4-ylcarbonyl)piperazine] | < 5 |  |  | 544 | 5.9 | 
13 | Cc1cc(-c2ccc(Cl)c(C(F)(F)F)c2)ccc1C(=O)N1CC(N2CCN(C(=O)c3ccccc3)CC2)C1 [Cpd 256, 1-(1-{[4′-Chloro-3-methyl-3′-(trifluoromethyl)biphenyl-4-yl]carbonyl}azetidin-3-yl)-4-(phenylcarbonyl)piperazine] | 13.4 |  |  | 157 | 33.3 | 
14 | Cc1cc(C(=O)N2CC(N3CCN(C(=O)c4cscn4)CC3)C2)ccc1-c1ccc(F)c(Cl)c1 [Cpd 257, 1-{1-[(3′-Chloro-4′-fluoro-2-methylbiphenyl-4-yl)carbonyl]azetidin-3-yl}-4-(1,3-thiazol-4-ylcarbonyl)piperazine] | < 5 |  |  | 285 | 3.3 | 
15 | COc1cc(C(=O)N2CC(N3CCN(C(=O)c4cscn4)CC3)C2)ccc1-c1ccc(Cl)c(C(F)(F)F)c1 [Cpd 262, 1-(1-{[4′-Chloro-2-methoxy-3′-(trifluoromethyl)biphenyl-4-yl]carbonyl}azetidin-3-yl)-4-(1,3-thiazol-4-ylcarbonyl)piperazine] | < 5 |  |  | 386 | 2.5 | 
16 | COc1cc(C(=O)N2CC(N3CCN(C(=O)c4ccccc4)CC3)C2)ccc1-c1ccc(F)c(Cl)c1 [Cpd 263, 1-{1-[(3′-Chloro-4′-fluoro-2-methoxybiphenyl-4-yl)carbonyl]azetidin-3-yl}-4-(phenylcarbonyl)piperazine] | 28.5 |  |  | 199 | 5 | 
17 | O=C(c1cscn1)N1CCN(C2CN(C(=O)c3ccc(-c4ccc(F)c(Cl)c4)cc3Cl)C2)CC1 [Cpd 265, 1-{1-[(3,3′-Dichloro-4′-fluorobiphenyl-4-yl)carbonyl]azetidin-3-yl}-4-(1,3-thiazol-4-ylcarbonyl)piperazine] | 19 |  | 643 | 162 | 19.8 | 126
18 | O=C(c1ccccc1)N1CCN(C2CN(C(=O)c3cc4cccc(C(F)(F)F)c4s3)C2)CC1 [Cpd 329, 1-(Phenylcarbonyl)-4-(1-{[7-(trifluoromethyl)-1-benzothiophen-2-yl]carbonyl}azetidin-3-yl)piperazine] | 1220 |  | 520 |  | 62.6 | 
19 | O=C(c1ccccc1)N1CCN(C2CN(C(=O)c3cc4c(C(F)(F)F)cccc4s3)C2)CC1 [Cpd 330, 1-(Phenylcarbonyl)-4-(1-{[4-(trifluoromethyl)-1-benzothiophen-2-yl]carbonyl}azetidin-3-yl)piperazine] | 308 |  |  | 197 | 438 | 
20 | O=C(c1ccc2c(-c3ccccc3)cccc2c1)N1CC(N2CCN(C(=O)c3nccs3)CC2)C1 [Cpd 338, 1-{1-[(5-Phenylnaphthalen-2-yl)carbonyl]azetidin-3-3yl}-4-(1,3-thiazol-2-ylcarbonyl)piperazine] | < 5 |  | 791 |  | 1.1 | 
21 | O=C(c1ccc2c(c1)CCCN2)N1CC(N2CCN(C(=O)c3nccs3)CC2)C1 [Cpd 357, 6-(3-[4-(1,3-Thiazol-2-ylcarbonyl)piperazin-1-yl]-azetidin-1-yl)carbonyl-1,2,3,4-tetrahydroquinoline] | 3750 |  |  | 152 | 238 | 
22 | O=C(c1ccccc1)N1CCN(C2CN(C(=O)c3ccc(Oc4cccc(C(F)(F)F)c4)cc3)C2)CC1 [Cpd 419, 1-(Phenylcarbonyl)-4-[1-({4-[3-(trifluoromethyl)phenoxy]phenyl}carbonyl)azetidin-3-yl]piperazine] | 170 | 123 |  | 109 |  | 
23 | O=C(c1ccc(Oc2cccc(C(F)(F)F)c2)cc1)N1CC(N2CCN(C(=O)c3nccs3)CC2)C1 [Cpd 424, 1-(1,3-Thiazol-2-ylcarbonyl)-4-[1-({4-[3-(trifluoromethyl)phenoxy]phenyl}carbonyl)azetidin-3-yl]piperazine] | < 5 | 9.41 |  | 436 |  | 
